Results taken from patent publication US20130031644A1, “AUTONOMOUS LUX REPORTER SYSTEM AND METHODS OF USE” (University of Tennessee Research Foundation, priority 2011, published 2013).

Experiments:
[1] = tested on: luxC gene transcription under the tetracycline response element in HEK293 cells (pLuxAB/pLuxCDEfrp-TET); test: rt-PCR of luxC transcription in response to doxycycline; format: cell-based, human; conditions: for average CT value for luxC detection: 24 h, average of eleven cell lines; for increase in luxC transcription / reduction of cycles to reach CT: best performing cell line
Protocol: Twenty-four h post-transfection, the medium was removed and replaced with complete medium supplemented with the appropriate antibiotic. Selection of successfully transfected clones was performed by refreshing selective medium every 4-5 d until all untransfected cells had died. At this time, colonies of transfected cells were removed by scraping, transferred to individual 25 cm^2 cell culture flasks, and grown in complete medium supplemented with the appropriate antibiotics. To screen the resulting cell lines for the ability to regulate luxC transcription in response to doxycycline, relative reverse transcription PCR (rt-PCR) was used to determine the level of luxC mRNA present 24 h following the addition of 0, 10, or 100 ng doxycycline/ml to the complete growth medium. To this end, each isolated cell line was split into 4 25 cm^2 cell culture flasks upon reaching 80% confluence. Cells were then grown at 37° C. and 5% CO2 until again reaching ˜80% confluence. At this point, one of the flasks was routinely passaged to maintain a stock of cells for future use. The remaining 3 flasks were spiked with 0, 10, or 100 ng doxycycline/ml and returned to the incubator. Twenty-four h post doxycycline addition, cells were harvested and total RNA was isolated using an RNeasy isolation kit (Qiagen). Isolated RNA was used directly for rt-PCR analysis, and cell lines displaying the greatest range in luxC transcription between 0 ng Doxycycline/ml treatment and either 10 ng or 100 ng doxycycline/ml treatment were selected for bioluminescent screening.

[2] = tested on: tetracycline responsive lux reporter HEK293 cells (pLuxAB/pLuxCDEfrp-TET); test: Bioluminescent measurement in response to doxycycline; format: cell-based, human; conditions: for average total flux: 24 h period; for range of total flux over the course of the assay: after 1 h post treatment
Protocol: Cell lines displaying the greatest upregulation of luxC gene transcription following treatment with 10 ng and 100 ng Doxycycline/ml were passaged into 75 cm^2 tissue culture flasks (Corning) and grown at 37° C. and 5% CO2 until they reached 90% confluence. Cells were then harvested by trypsinization and cell number was determined as the average of two counts using a hemocytometer. Approximately 1×10^6 cells per well were plated in triplicate in opaque 24-well tissue culture plates (Costar) in DMEM without phenol red and supplemented with 10% fetal bovine serum, 0.01 mM non-essential amino acids, and 0.01 mM sodium pyruvate. Immediately post plating, wells were spiked with either 0, 10, 100, or 500 ng Doxycycline/ml. Photon counts were then recorded using an IVIS Lumina in vivo imaging system and analyzed with Living Image 3.0 software (Caliper Life Sciences). The change in light output over time was determined in photons (p)/sec (s) for each well by averaging the photon output over integration times of 10 min and reported with the standard error of the mean.

[3] = tested on: constitutively bioluminescent HEK293 cells expressing pLuxCDEfrp/pLuxAB; test: Bioluminescent measurement in response to toxic chemical exposure (n-decanal); format: cell-based, human
Protocol: To determine the ability of constitutively bioluminescent HEK293 cells to function as a bioreporter for toxic chemical exposure, cells stably expressing pLuxCDEfrp/pLuxAB were exposed to increasing concentrations of the cytotoxic aldehyde n-decanal. HEK293 cells previously determined to be capable of continuous bioluminescent output from the expression of the pLuxCDEfrp/pLuxAB plasmids were passaged into 75 cm^2 tissue culture flasks (Corning) and grown at 37° C. and 5% CO^2 until they reached 90% confluence. Cells were then harvested by trypsinization and cell number was determined as the average of two counts using a hemocytometer. Approximately 1×10^6 cells per well were plated in all wells in opaque 24-well tissue culture plates (Costar) in DMEM without phenol red and supplemented with 10% fetal bovine serum, 0.01 mM non-essential amino acids, and 0.01 mM sodium pyruvate. Triplicate wells were treated with serial dilutions of n-decanal ranging from 0.1% to 1×10^−5%, with a control set receiving no n-decanal amendment to determine maximal bioluminescent expression. Photon counts were then recorded using an IVIS Lumina in vivo imaging system and analyzed with Living Image 3.0 software (Caliper Life Sciences). The change in light output over time was determined in photons (p)/sec/cm^2/steridian (sr) for each well using integration times of […] once every hour for 24 h and reported as the average of three runs with the standard error of the mean.

[4] = molecular target: T1, bacterial luciferase (lux) in protein extracts of HEK293 cells (Photorhabdus luminescens, UniProt P19839); test: In vitro supplementation assays of lux cell extracts (oxidoreductase, aldehyde); format: biochemical, P. luminescens; conditions: 0.002% (w/v) n-decanal
T1 construct: expressed in transfected cells; host or cells: HEK293 cells stably carrying pLuxAB (luxA-IRES-luxB, CMV promoter), co-transfected with pLuxCDEfrp:WT or pLuxCDEfrp:CO; The soluble protein extract was made by freeze/thaw
T1 sequence (P19839 1-360): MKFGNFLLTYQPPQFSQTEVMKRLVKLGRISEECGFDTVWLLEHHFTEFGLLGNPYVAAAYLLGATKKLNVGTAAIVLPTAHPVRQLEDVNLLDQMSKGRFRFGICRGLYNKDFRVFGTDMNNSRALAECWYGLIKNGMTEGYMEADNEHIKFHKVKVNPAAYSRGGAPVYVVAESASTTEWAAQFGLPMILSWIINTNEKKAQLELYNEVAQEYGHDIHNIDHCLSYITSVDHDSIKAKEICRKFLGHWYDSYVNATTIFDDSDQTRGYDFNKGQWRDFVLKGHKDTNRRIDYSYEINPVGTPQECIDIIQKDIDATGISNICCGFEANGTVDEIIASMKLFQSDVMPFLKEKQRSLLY
T1 sequence (P19840 1-327 partner): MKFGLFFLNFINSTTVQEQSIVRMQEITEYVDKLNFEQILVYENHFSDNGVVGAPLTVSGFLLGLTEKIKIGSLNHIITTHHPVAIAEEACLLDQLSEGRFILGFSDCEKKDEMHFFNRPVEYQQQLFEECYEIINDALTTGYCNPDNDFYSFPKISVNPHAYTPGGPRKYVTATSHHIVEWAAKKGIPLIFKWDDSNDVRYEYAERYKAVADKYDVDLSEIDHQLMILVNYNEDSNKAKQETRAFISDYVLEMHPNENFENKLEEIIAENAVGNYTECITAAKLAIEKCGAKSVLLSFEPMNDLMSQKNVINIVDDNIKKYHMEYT
Protocol: Bioluminescence was measured using an FB 14 luminometer (Zylux) with a 1 sec integration time. To prepare the sample for in vitro bioluminescent measurement, 400 μl of the isolated protein extract was combined with 500 μl of either oxidoreductase supplemented light assay solution containing 0.1 mM NAD(P)H, 4 μM FMN, 0.2% (w/v) BSA and 1 U of oxidoreductase protein isolated from V. fischeri (Roche), or oxidoreductase deficient light assay solution (distilled water substituted for the 1 U of oxidoreductase protein). Following the initial bioluminescent reading, samples were amended with 0.002% (w/v) n-decanal and the readings were continued to determine if additional aldehyde could increase light output. All bioluminescent signals were normalized to total protein concentration as determined by BCA protein assay (Pierce) and reported as relative light units (RLU)/mg total protein. […] A 15 μl aliquot of cells was removed and counted using a hemocytometer to allow all values to be normalized to viable cell counts. […]
Total protein was extracted from co-transfected pLuxCDEfrp:CO/pLuxAB or pLuxCDEfrp:WT/pLuxAB cell lines or the pTa2AluxAB transfected cell line using a freeze/thaw procedure. […] Bioluminescence was measured using an FB14 luminometer (Zylux) with a 1 sec integration time. […]

[5] = native state, 37° C.; cited from earlier work

C[C@H]1c2cccc(O)c2C(=O)C2=C(O)[C@]3(O)C(=O)C(C(N)=O)=C(O)[C@@H](N(C)C)[C@@H]3[C@@H](O)[C@@H]21 [doxycycline]
average CT value for luxC detection ([1]; 10 ng doxycycline/ml): 11.9 (±0.7) cycles
average CT value for luxC detection ([1]; 100 ng doxycycline/ml): 11.5 (±0.6) cycles
increase in luxC transcription ([1]; 10 ng doxycycline/ml): approximately 11 fold
reduction of cycles to reach CT ([1]; 10 ng doxycycline/ml): 3.5 cycles
increase in luxC transcription ([1]; 100 ng doxycycline/ml): ~20 fold
reduction of cycles to reach CT ([1]; 100 ng doxycycline/ml): 4.3 cycles
average total flux ([2]; 10 ng doxycycline/ml, not significant vs untreated (p=0.06)): 11,500 (±200) p/s
range of total flux over the course of the assay ([2]; 10 ng doxycycline/ml): 1,900 p/s
incubation period to significant up regulation in bioluminescent output ([2]; 100 ng doxycycline/ml): 1 h
average total flux ([2]; 100 ng doxycycline/ml, significant vs untreated (p=1.1×10^−5)): 12,500 (±200) p/s
range of total flux over the course of the assay ([2]; 100 ng doxycycline/ml): 1,800 p/s
maximum measured flux ([2]; induced with 100 ng doxycycline/ml): 1.3 (±0.03)×10^4 p/s

CCCCCCCCCC=O [n-decanal]
molar concentration corresponding to the 0.01% treatment ([3]; 0.01% decanal): ~640 µM
start of intermittent deviation in bioluminescent flux ([3]; 0.01% decanal, post addition): 40 min
time after addition until deleterious effects consistently observable ([3]; 0.01% n-decanal): 4 h
effect on bioluminescent output ([3]; 0.1% n-decanal): reduced bioluminescent output immediately following addition
concentration at which the aldehyde became toxic to the HEK293 cell line ([3]; 24 h assay): ≥ 0.01%
effect on bioluminescent output ([3]; remaining treatment levels (below 0.01%, down to 1×10^−5%)): could not be statistically differentiated from cells not receiving treatment
increase in light output ([4]; extracts of cells with codon-optimized genes): 58 fold
increase in light output ([4]; extracts of cells with wild-type genes): 16 fold

firefly luciferase protein: firefly luciferase reporter protein, heat labile under whole animal imaging conditions
half life [5]: ≥ 3 min
